From US9738610B2, “Indazole derivatives and uses thereof” (Whitehead Institute for Biomedical Research, priority 2012, dated 2017)
“Also recorded” adds a separate entry of the source.

What was measured:
[1] = test system: Candida albicans strain CaCi-2; test: Cytotoxicity to fluconazole-resistant strain CaCi-2; assay type: cell-based
CaCi-8 = test: MIC of fluconazole against CaCi-8; assay type: cell-based; details: Candida albicans; read-out: Minimum inhibitory concentration (MIC) against CaCi-8
Method: (§1) In order to identify non-fungitoxic chemosensitizers (“probes” or “probe compounds”) of C. albicans, compounds from the NIH's Molecular Libraries Small Molecule Repository (MLSMR) (mli.nih.gov/mli/secondary-menu/mlscn/ml-small-molecule-repository/) were evaluated in the screening cascade summarized in FIG. 3. The C. albicans strains used in the primary screen and secondary assay 1 (CaCi-2 and CaCi-8, respectively) are both clinical isolates that partially respond to fluconazole treatment (Redding et al., Clin. Infect. Dis. 1994, 18, 240-242). […] In the primary assay, CaCi-2 cells are exposed to 8 μg/mL fluconazole; this induces a basal level of 60-80% growth inhibition with additional suppression of the trailing growth associated with this particular strain (Redding et al., Clin. Infect. Dis. 1994, 18, 240-242).

C. albicans CaCi-2 = test: CaCi-2 growth inhibition in the presence of 8 μg/ml fluconazole (Alamar Blue); assay type: cell-based, Candida albicans; details: Candida albicans, CACI2; 8 μg/mL fluconazole alone in the primary assay; read-out: Basal level of growth inhibition of CaCi-2
Method: Fluconazole was obtained from Sequoia Research Products, Ltd. and prepared in a 2 mg/ml stock solution in phosphate buffered saline (PBS). […] PBS (Catalog No. 21-040-CV) without calcium and magnesium was obtained from Cellgro. Penicillin/Streptomycin (Pen/Strep) was obtained from Gibco and prepared 100× in PBS.
RPMI medium (1×) was prepared by dissolving 10.4 g powdered medium in 800 ml water. A buffer of 34.52 g MOPS was added. While stirring, pH was adjusted to 7.0 with 10 N NaOH. Next, 10 ml uridine solution and 50 ml glucose solution were added. The final volume was adjusted to 1000 ml, and filter sterilized.
The following yeast strains were used in this study: C. albicans CaCi-2. Fungal inoculum was prepared as follows: 500 μl of strain was inoculated from cryopreserved stock into a 250-ml shaker flask containing 30 ml growth medium and shaken overnight at 30° C. The optical density (OD 600) of 1 ml fungal culture in a cuvette was read using a standard optical density reader (Eppendorf BioPhotometer Plus), with growth medium as a background blank. The desired volume of fungal inoculums was diluted to desired volume of fungal inoculums according to the following formula: (1/OD measured)×(Desired Final Volume of Inoculum)×0.3=Volume of fungal culture (μl) to add to desired volume of growth medium. When added to media in wells, this yields a calculated starting OD of the fungal inoculum of 0.00015.
Fluconazole stock solution was added to the fungal inoculum to achieve 8 μg/ml. Pen/Strep was added to the media to a 1% concentration (v/v). A Thermo Combi nL was used to dispense 20 μl/well of assay media into all wells. Geldanamycin was dispensed in positive control wells using Thermo Combi nL for a final concentration of 3 μM. Then, 100 nl of test compound was pinned from compound plates into assay plates using a CyBi-Well pin tool. A further 20 μl/well of culture was dispensed into the assay media in all wells. The plates were incubated in a humidified (90% humidity) Liconic incubator at 37° C. without agitation for 48 hours. Alamar Blue was diluted 1:40 in Ca/Mg-free PBS. To all plates, […] of the diluted Alamar Blue was added to the plates to a final dilution factor of 1:200. The plates were incubated for an additional 2 hours. Then, Relative Fluorescence Intensity (RFU) of each well was read on standard plate reader as a measure of relative fungal growth.

[2] = test system: Candida albicans strain SC5314; test: Cytotoxicity to fluconazole-sensitive strain SC5314; assay type: cell-based
CaCi-2 = test: MIC of fluconazole against CaCi-2; assay type: cell-based; details: Candida albicans; read-out: Minimum inhibitory concentration (MIC) against CaCi-2
Method: as §1

[3] = test system: Saccharomyces cerevisiae strain W303-1a; test: In vivo inhibition of fungal respiration (growth on glycerol); assay type: cell-based; details: glycerol medium, 48 hours
Method: Saccharomyces cerevisiae (S. cerevisiae) strain W303-1a was grown overnight in Yeast-Peptone-Dextrose media, washed, and diluted into Yeast Nitrogen Base media with 2.5% glycerol containing compounds at a range of dilutions.

C. albicans [4] = test: Candida albicans susceptibility test (CLSI M27-A3); assay type: cell-based; details: FIG. 9
Method: (§2) Candida albicans susceptibility testing was performed as described in Clinical Laboratory Standards Institute document M27-A3 (CLSI M27-A3) (CLSI. Reference Method for Broth Dilution Antifungal Susceptibility Testing of Yeasts; Approved Standard—Third Edition. CLSI, 940 West Valley Road, Suite 1400, Wayne, Pa. 19087-1898 USA, 2003).

Aspergillus terreus = Aspergillus terreus susceptibility test (CLSI M38-A2); assay type: cell-based
Method: as §2, with “Aspergillus terreus (A. terreus)” for “Candida albicans”, “[…]-A2” for “M27-A3”, “[…]-A2)” for “M27-A3)”, “Filamentous Fungi;” for “Yeasts;”, “Standard-Second” for “Standard—Third”

fungus = details: read-out: IC50, single-agent antifungal activity; cited from earlier work
C. albicans [5] = details: cited from earlier work
yeast = biological target: T1, yeast (Saccharomyces cerevisiae, UniProt P00163); test: IC50 values and selectivity of Table 10A (target yeast, anti-target human cytochrome); assay type: biochemical
T1 construct: Mitochondrial membranes were prepared from yeast; endogenous in cells; host or cells: yeast (mitochondrial membranes)
Method: All measurements were performed in triplicate.

[6] = test system: Candida albicans wild-type; test: De novo emergence of fluconazole resistance (colonies after six days); assay type: cell-based; details: I-97 0.5 μM combined with fluconazole 32 mg/L
Method: Candida albicans wild-type (WT, FIG. 13, top panel) or rip1/rip1 homozygous deletion mutant (rip1 Δ/Δ, FIG. 13, middle panel) were plated on media in the presence of fluconazole (32 mg/L) or in the absence of fluconazole. The emergence of colonies was monitored after six days.

[7] = biological target: cytochrome B of yeast S. cerevisiae (wild type) (Saccharomyces cerevisiae, UniProt P00163); test: biochemical
[8] = biological target: cytochrome B of S. cerevisiae resistant to known antifungal agents (Saccharomyces cerevisiae, UniProt P00163, L275F); details: FIG. 14A curve 3
Method: (§3) Compounds described herein were added to plates in a buffer containing 50 mM Tris-Cl pH 7.3, 10 mM NaN3, 0.01% BSA, and 0.05% Tween-20. Mitochondrial membranes (2-5 μg protein) were added to the buffer, followed by oxidized equine cytochrome C (Sigma) at a final concentration of 50 μM. Reactions were initiated by adding decylubiquinol to a final concentration of 50 μM. Reaction progress was monitored by reading the increase in signal at 550 nm on a Tecan Evo plate reader. […] All measurements were performed in triplicate.

human Complex III = biological target: T2, human Complex III (Homo sapiens, UniProt P00156); test: In vitro inhibition of Complex III, human enzyme; assay type: biochemical; details: FIG. 14A curve 2
T2 construct: Mitochondrial membranes were prepared from yeast (Meisinger et al., Methods Mol. Biol. 2006, 313:33-9.) or HEK293 cells; endogenous in cells; host or cells: HEK293 cells (mitochondrial membranes)
Method: as §3

OC(Cn1cncn1)(Cn1cncn1)c1ccc(F)cc1F [fluconazole, reference compound]
Effect on CaCi-2 ([1]; fluconazole alone): not cytostatic or cytotoxic | MIC (CaCi-8): 8 µg/mL | inhibition at 8 µg/mL (C. albicans CaCi-2): 60 to 80% | Effect on SC5314 ([2]; fluconazole alone): cytostatic, but not cytotoxic | MIC (CaCi-2): 2 µg/mL

c1ccc(COc2cccc(-c3nn(Cc4nnco4)c4ccccc34)c2)cc1 [Compound I-52]
Inhibitory activity against S. cerevisiae (respiratory growth) [3]: shows inhibitory activity | Inhibition of C. albicans in absence and presence of fluconazole (FCZ) (C. albicans [4]): more active in inhibiting C. albicans in presence of fluconazole (FCZ) than in absence thereof | Inhibitory activity against A. terreus (Aspergillus terreus): shows inhibitory activity

Plagiochin E
IC50 (fungus): 3800 nM | Concentration that increased yeast susceptibility to fluconazole (C. albicans [5]): 2.4 µM

COC(=O)Cn1nc(-c2cc(C(F)(F)F)ccc2F)c2cccc(C)c21 [Compound I-97]
Effect on CaCi-2 ([1]; combination with fluconazole): cytotoxic | Effect on SC5314 ([2]; combination with fluconazole): cytotoxic | IC50 (yeast; target is yeast): 4 nM | Selectivity* (anti-target IC50)/(target IC50) (yeast; target yeast, anti-target human cytochrome): 200 | Emergence of resistance to fluconazole [6]: prevented the emergence of the resistance to fluconazole

COC(=O)Cn1nc(-c2ccccc2)c2ccccc21 [Compound I-3]
IC50 [7]: ~600 nM | Inhibitory activity against resistant S. cerevisiae [8]: showed inhibitory activity | Inhibitory activity against S. cerevisiae (respiratory growth) [3]: completely inhibits respiratory growth; also recorded: shows inhibitory activity | Inhibitory activity against A. terreus (Aspergillus terreus): shows inhibitory activity | Inhibition of human Complex III in vitro (human Complex III): active
